Data as given in DBAASP.
In brackets after ≈: the same amount, converted by molar mass.

Tests used:
Assay in all cases: ≥ marks a high value that may be exact or a test limit, other limits are often not marked, values filed in µg/mL are converted to µM
[1] = test system: Escherichia coli NCTC 10418
Escherichia coli = test system: Escherichia coli
[2] = test system: Staphylococcus epidermidis
Streptococcus uberis = test system: Streptococcus uberis
Leuconostoc lactis = test system: Leuconostoc lactis
Listeria innocua = test system: Listeria innocua
Staphylococcus aureus = test system: Staphylococcus aureus
Pasteurella multocida = test system: Pasteurella multocida
Bacillus cereus = test system: Bacillus cereus
Micrococcus luteus = test system: Micrococcus luteus
[3] = test system: Staphylococcus epidermidis KCTC 1917
[4] = test system: Escherichia coli KCTC 1682
[5] = test system: Bacillus subtilis KCTC 3068
[6] = test system: Staphylococcus aureus KCTC 1621
[7] = test system: Pseudomonas aeruginosa KCTC 1637
[8] = test system: Salmonella typhimurium KCTC 1926
Escherichia coli K-12 = test system: Escherichia coli K-12
[9] = test system: Staphylococcus aureus USA 300
[10] = test system: Micrococcus luteus ATCC 9341

Compound	MIC (Escherichia coli)	MIC [2]	MIC (Streptococcus uberis)	MIC (Leuconostoc lactis)	MIC (Listeria innocua)	MIC (Staphylococcus aureus)	MIC (Pasteurella multocida)	MIC (Bacillus cereus)	MIC (Micrococcus luteus)	also measured
CC[C@H](C)[C@H](NC(=O)[C@H](CCCCN)NC(=O)[C@H](C)NC(=O)[C@H](C)N)C(=O)N[C@H](C(=O)N[C@@H](CC(C)C)C(=O)N[C@@H](CC(N)=O)C(=O)N1CCC[C@H]1C(=O)N[C@@H](CCCCN)C(=O)N[C@@H](Cc1ccccc1)C(=O)N[C@@H](CCCN=C(N)N)C(=O)N[C@H]1CSSC[C@@H](C(=O)O)NC(=O)[C@H](Cc2ccccc2)NC(=O)[C@H](C)NC(=O)[C@H](C)NC(=O)[C@H](Cc2ccccc2)NC1=O)[C@@H](C)CC [AAKIILNPKFRCFAAFC]	–	–	–	–	–	–	–	–	–	MIC [1]: ≥ 160 µM
CC[C@H](C)[C@H](NC(=O)[C@H](CC(=O)O)NC(=O)[C@H](Cc1ccccc1)NC(=O)[C@H](CC(C)C)NC(=O)CN)C(=O)N[C@H](C(=O)N[C@@H](CCCCN)C(=O)N[C@@H](CCCCN)C(=O)N[C@H](C(=O)N[C@@H](C)C(=O)N[C@@H](CO)C(=O)N[C@H](C(=O)N[C@H](C(=O)NCC(=O)NCC(=O)N[C@@H](CC(C)C)C(N)=O)[C@@H](C)CC)C(C)C)C(C)C)[C@@H](C)CC [GLFDIIKKVASVIGGL]	> 61.4 µM	15.3 µM (≈ 25 µg/mL)	7.36 µM (≈ 12 µg/mL)	3.68 µM (≈ 6 µg/mL)	15.3 µM (≈ 25 µg/mL)	15.3 µM (≈ 25 µg/mL)	≥ 61.4 µM	15.3 µM (≈ 25 µg/mL)	7.36 µM (≈ 12 µg/mL)	–
CC[C@H](C)[C@H](NC(=O)[C@H](CCCCN)NC(=O)[C@H](CO)NC(=O)[C@H](C)NC(=O)[C@@H](NC(=O)[C@H](CCCCN)NC(=O)[C@H](CCCCN)NC(=O)[C@@H](NC(=O)[C@@H](NC(=O)[C@H](CC(=O)O)NC(=O)[C@H](Cc1ccccc1)NC(=O)[C@H](CC(C)C)NC(=O)CN)C(C)C)[C@@H](C)CC)C(C)C)C(=O)NCC(=O)NCC(=O)N[C@@H](CC(C)C)C(N)=O [GLFDVIKKVASKIGGL]	60.8 µM (≈ 99.9 µg/mL)	≥ 60.8 µM	≥ 60.8 µM	7.29 µM (≈ 12 µg/mL)	30.4 µM (≈ 50 µg/mL)	> 60.8 µM	≥ 60.8 µM	≥ 60.8 µM	≥ 60.8 µM	–
CC[C@H](C)[C@H](NC(=O)[C@@H](NC(=O)[C@H](CO)NC(=O)[C@H](C)NC(=O)[C@@H](NC(=O)[C@H](CCCCN)NC(=O)[C@H](CCCCN)NC(=O)[C@@H](NC(=O)[C@@H](NC(=O)[C@H](CC(=O)O)NC(=O)[C@H](Cc1ccccc1)NC(=O)[C@H](CC(C)C)NC(=O)CN)C(C)C)[C@@H](C)CC)C(C)C)C(C)C)C(=O)NCC(=O)NCC(=O)N[C@@H](C)C(N)=O [GLFDVIKKVASVIGGA]	> 63.5 µM	≥ 63.5 µM	≥ 63.5 µM	15.9 µM (≈ 25 µg/mL)	≥ 63.5 µM	> 63.5 µM	≥ 63.5 µM	≥ 63.5 µM	≥ 63.5 µM	–
CC[C@H](C)[C@H](NC(=O)[C@@H](NC(=O)[C@H](CO)NC(=O)[C@H](C)NC(=O)[C@@H](NC(=O)[C@H](CCCCN)NC(=O)[C@H](CCCCN)NC(=O)[C@@H](NC(=O)[C@@H](NC(=O)[C@H](CC(=O)O)NC(=O)[C@H](Cc1ccccc1)NC(=O)[C@H](CC(C)C)NC(=O)CN)C(C)C)[C@@H](C)CC)C(C)C)C(C)C)C(=O)NCC(=O)N[C@@H](CC(C)C)C(=O)N[C@@H](C)C(=O)N[C@@H](CO)C(=O)N1CCC[C@H]1C(=O)O [GLFDVIKKVASVIGLASP]	> 55.1 µM	≥ 55.1 µM	≥ 55.1 µM	27.6 µM (≈ 50 µg/mL)	≥ 55.1 µM	> 55.1 µM	≥ 55.1 µM	≥ 55.1 µM	≥ 55.1 µM	–
CC[C@H](C)[C@H](NC(=O)[C@H](CO)NC(=O)CNC(=O)[C@@H](NC(=O)[C@H](CC(C)C)NC(=O)CN)[C@@H](C)CC)C(=O)NCC(=O)N[C@@H](CCCCN)C(=O)N[C@@H](C)C(=O)N[C@@H](CC(C)C)C(=O)NCC(=O)NCC(=O)N[C@@H](CC(C)C)C(=O)N[C@@H](CC(C)C)C(=O)N[C@H](C(=O)N[C@@H](CC(=O)O)C(=O)N[C@H](C(=O)N[C@@H](CC(C)C)C(=O)N[C@@H](CCCCN)C(=O)N1CCC[C@H]1C(=O)N[C@@H](CCCCN)C(=O)N[C@@H](CC(C)C)C(=O)N[C@@H](CCC(N)=O)C(=O)N[C@@H](C)C(=O)N[C@@H](C)C(=O)N[C@@H](CO)C(=O)O)C(C)C)C(C)C [GLIGSIGKALGGLLVDVLKPKLQAAS]	> 39.7 µM	≥ 39.7 µM	≥ 39.7 µM	≥ 39.7 µM	≥ 39.7 µM	> 39.7 µM	≥ 39.7 µM	≥ 39.7 µM	≥ 39.7 µM	–
CC[C@H](C)[C@H](N)C(=O)NCC(=O)N[C@@H](CCCCN)C(=O)N[C@@H](CCCCN)C(=O)N[C@@H](Cc1ccccc1)C(=O)N[C@@H](CCCCN)C(=O)N[C@@H](CCCN=C(N)N)C(=O)N[C@H](C(=O)N[C@H](C(=O)N[C@@H](CCC(N)=O)C(=O)N[C@@H](CCCN=C(N)N)C(=O)N[C@H](C(=O)N[C@@H](CCCCN)C(=O)N[C@@H](CCCCN)C(=O)N[C@@H](Cc1ccccc1)C(=O)N[C@@H](CC(C)C)C(=O)N[C@@H](CCCN=C(N)N)C(=O)N[C@@H](CCCCN)C(=O)N[C@@H](CC(C)C)C(=O)O)[C@@H](C)CC)C(C)C)[C@@H](C)CC [IGKKFKRIVQRIKKFLRKL]	–	–	–	–	–	–	–	–	–	MIC [3]: 2 µM (≈ 4.8 µg/mL); MIC [4]: 8 µM (≈ 19.2 µg/mL); MIC [5]: 2 µM (≈ 4.8 µg/mL); MIC [6]: 4 µM (≈ 9.6 µg/mL); MIC [7]: 8 µM (≈ 19.2 µg/mL); MIC [8]: 4 µM (≈ 9.6 µg/mL)
CC[C@H](C)[C@H](NC(=O)[C@@H](N)CCCCN)C(=O)N[C@@H](CCCCN)C(=O)N[C@@H](CC(C)C)C(=O)N[C@@H](Cc1ccccc1)C(=O)N[C@@H](CCCCN)C(=O)N[C@@H](CCCCN)C(=O)N[C@@H](Cc1c[nH]c2ccccc12)C(=O)N1CCC[C@H]1C(=O)N[C@@H](CCCCN)C(=O)N[C@@H](Cc1ccccc1)C(=O)N[C@@H](CC(C)C)C(=O)N[C@@H](Cc1cnc[nH]1)C(=O)N[C@@H](CC(C)C)C(=O)N[C@@H](C)C(=O)N[C@@H](CCCCN)C(=O)N[C@@H](CCCCN)C(=O)N[C@@H](Cc1ccccc1)C(N)=O [KIKLFKKWPKFLHLAKKF]	–	–	–	–	–	–	–	–	–	MIC [3]: 1 µM (≈ 2.3 µg/mL); MIC [4]: 2 µM (≈ 4.6 µg/mL); MIC [5]: 1 µM (≈ 2.3 µg/mL); MIC [6]: 2 µM (≈ 4.6 µg/mL); MIC [7]: 2 µM (≈ 4.6 µg/mL); MIC [8]: 2 µM (≈ 4.6 µg/mL)
CC[C@H](C)[C@H](NC(=O)[C@H](CCCCN)NC(=O)[C@H](CCC(N)=O)NC(=O)[C@@H](NC(=O)[C@@H](NC(=O)[C@H](CCCCN)NC(=O)[C@@H](N)CCCCN)[C@@H](C)CC)C(C)C)C(=O)N[C@@H](CCCCN)C(=O)N[C@@H](CC(=O)O)C(=O)N[C@@H](Cc1ccccc1)C(=O)N[C@@H](CC(C)C)C(=O)N[C@@H](CCCCN)C(N)=O [KKIVQKIKDFLK]	–	–	–	–	–	–	–	–	–	MIC (Escherichia coli K-12): ≥ 106 µM
CC[C@H](C)[C@H](NC(=O)[C@H](CC(C)C)NC(=O)CNC(=O)[C@H](CO)NC(=O)[C@@H](NC(=O)[C@H](CC(C)C)NC(=O)[C@@H](N)CC(N)=O)C(C)C)C(=O)N[C@@H](CCC(=O)O)C(=O)N[C@@H](C)C(=O)N[C@@H](CCCNC(=N)N)C(=O)N[C@@H](CCCCN)C(=O)N[C@@H](Cc1ccc(O)cc1)C(=O)N[C@@H](CC(C)C)C(=O)N[C@@H](CCC(=O)O)C(=O)N[C@@H](CCC(N)=O)C(=O)N[C@@H](CC(C)C)C(=O)N[C@@H](Cc1cnc[nH]1)C(=O)N[C@@H](CCCNC(=N)N)C(=O)N[C@@H](CCCCN)C(=O)N[C@@H](CC(C)C)C(=O)N[C@@H](CCCCN)C(=O)N[C@@H](CC(N)=O)C(=O)N[C@@H](CCCNC(=N)N)C(=O)N[C@@H](CCCCN)C(=O)N[C@H](C(=O)O)C(C)C [NLVSGLIEARKYLEQLHRKLKNRKV]	–	–	–	–	–	–	–	–	–	MIC [9]: ≥ 92 µM; MIC (Escherichia coli K-12): ≥ 92 µM
CC[C@H](C)[C@H](NC(=O)[C@H](CC(C)C)NC(=O)[C@@H]1CCCN1C(=O)[C@H](Cc1ccccc1)NC(=O)[C@H](CCCCN)NC(=O)[C@H](Cc1ccccc1)NC(=O)[C@@H]1CCCN1C(=O)[C@H](Cc1ccccc1)NC(=O)[C@H](Cc1ccccc1)NC(=O)[C@@H]1CCCN1C(=O)[C@H](Cc1ccccc1)NC(=O)[C@H](CCCN=C(N)N)NC(=O)[C@@H](N)CCCN=C(N)N)C(N)=O [RRFPFFPFKFPLI]	–	–	–	–	–	–	–	–	–	MIC [10]: 0.4 µM (≈ 0.684 µg/mL)
